pIC50: −log10 of the molar value. Like-named read-outs stand apart in the source and are kept apart here. Values belong to the compound of their own block, whether it stands above or below them. Starred links: 1 amine or outer side, 2 acyl side, 3 side chain; linkers in the order of their positions; H or OH if unused. Positions of bridges follow the written chain, without caps; N, C: chain ends. Non-standard residues stand in square brackets, D forms with d. Residues, ends and D or L forms follow the SMILES beside them. ξ: configuration not given here. Phe(4-CONH2) = NC(=O)c1ccc(C[C@H](N)C(=O)O)cc1; Phe(3-Me) = Cc1cccc(C[C@H](N)C(=O)O)c1; γGlu = O=C(O)[C@H](CCC(=O)[*:2])N[*:1]; 2Nal = N[C@@H](Cc1ccc2ccccc2c1)C(=O)O; βAsp = O=C(O)[C@H](CC(=O)[*:2])N[*:1]; NMeThr(3ξ) = CN[C@H](C(=O)O)C(C)O; Cit = NC(=O)NCCC[C@H](N)C(=O)O; Ile(3ξ) = CCC(C)[C@H](N)C(=O)O; Ahp(2) = CCCCC[C@H](N)C(=O)O; NMeNle = CCCC[C@H](NC)C(=O)O; Tle = CC(C)(C)[C@H](N)C(=O)O; NMeS = CN[C@@H](CO)C(=O)O; NHexGly = CCCCCCNCC(=O)O; NMeA = CN[C@@H](C)C(=O)O; Nle = CCCC[C@H](N)C(=O)O; Orn = NCCC[C@H](N)C(=O)O; Aun = NCCCCCCCCCCC(=O)O; Aze = O=C(O)[C@@H]1CCN1; AEEA = NCCOCCOCC(=O)O
Target: T1, mouse VISTA (mVISTA) (Mus musculus, UniProt Q9D659)
T1 construct: expressed in transfected cells; host or cells: Human embryonic kidney 293T cells
T1 sequence (Q9D659 33-308): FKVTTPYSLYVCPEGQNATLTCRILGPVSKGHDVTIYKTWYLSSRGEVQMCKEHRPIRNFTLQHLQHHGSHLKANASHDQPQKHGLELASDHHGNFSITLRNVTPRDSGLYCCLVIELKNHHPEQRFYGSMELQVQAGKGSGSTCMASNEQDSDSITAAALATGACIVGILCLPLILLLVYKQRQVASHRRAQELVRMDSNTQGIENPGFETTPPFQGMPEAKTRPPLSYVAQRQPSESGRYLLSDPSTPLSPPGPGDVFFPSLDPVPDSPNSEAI
Assay: Cell-Based Binding High-Content Assay For mVISTA (HC CBA mVISTA)
Method in brief: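 Read-out: Alexa 647–streptavidin signal imaged on fixed, Hoechst-stained mVISTA-293T cells, with IC50 taken from a four-parameter logistic curve. Compounds competed with 2 nM biotinylated peptide for 30 min at room temperature, tested under both no-wash and wash (1 h compound, media exchange, 1 h) formats.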

[1] = cell-based binding high-content assay, mVISTA, read-out: HC CBA miPrISTA IC50
[2] = the 19th table, scaffold drawing 22, read-out: HC CBA mVISTA IC50

pIC50 [1]: 7.54
SMILES: CCCCCCN1CC(=O)N[C@@H](Cc2ccc(O)cc2)C(=O)N[C@@H](CC(C)C)C(=O)N[C@@H](CC(N)=O)C(=O)N[C@@H](CCCNC(=N)N)C(=O)N(C)[C@@H](CCCC)C(=O)N[C@@H](CCCCC)C(=O)N2CCC[C@H]2C(=O)N[C@@H](C(C)(C)C)C(=O)N[C@@H](CO)C(=O)N[C@H](C(=O)N[C@@H](CC(=O)NCCOCCOCC(=O)N[C@@H](CC(=O)O)C(=O)NCCOCCOCC(=O)NCCCCCCCCCCC(=O)O)C(=O)O)CSCC(=O)N[C@@H](Cc2ccc(C(N)=O)cc2)C(=O)N[C@@H](Cc2ccc(O)cc2)C(=O)N[C@@H](CC(=O)O)C1=O [compound 2087] ({CH2CO}-[Phe(4-CONH2)]YD[NHexGly]YLNR[NMeNle][Ahp(2)]P[Tle]SC[βAsp][AEEA]D[AEEA][Aun]-OH; thioether N-14)

pIC50 (read-out: HC CBA mVISTA IC50): 7.40
SMILES: CCCCCCN1CC(=O)N[C@@H](Cc2ccc(O)cc2)C(=O)N[C@@H](CC(C)C)C(=O)N[C@@H](CC(N)=O)C(=O)N[C@@H](CCCNC(=N)N)C(=O)N(C)[C@@H](CO)C(=O)N[C@@H](CCCCC)C(=O)N2CCC[C@H]2C(=O)N[C@@H](C(C)(C)C)C(=O)N[C@@H](CO)C(=O)N[C@H](C(=O)NCCOCCOCC(=O)N[C@@H](CCC(=O)NCCOCCOCC(=O)NCCCCCCCCCCC(=O)O)C(=O)O)CSCC(=O)N[C@@H](Cc2ccccc2)C(=O)N[C@@H](Cc2ccc(O)cc2)C(=O)N[C@@H](CC(=O)O)C1=O [compound 2262] ({CH2CO}-FYD[NHexGly]YLNR[NMeS][Ahp(2)]P[Tle]SC[AEEA][γGlu][AEEA][Aun]-OH; thioether N-14)

pIC50 (read-out: HC CBA mVISTA IC50): 7.44
SMILES: CCCCCCN1CC(=O)N[C@@H](Cc2ccc(O)cc2)C(=O)N[C@@H](CCCC)C(=O)N[C@@H](CC(N)=O)C(=O)N[C@@H](CCCNC(=N)N)C(=O)N[C@@H](CC(C)C)C(=O)N[C@@H](CCCCC)C(=O)N2CCC[C@H]2C(=O)N[C@@H](C(C)(C)C)C(=O)N[C@@H](CC(=O)O)C(=O)N[C@H](C(=O)NCCOCCOCC(=O)N[C@@H](CCC(=O)NCCOCCOCC(=O)NCCCCCCCCCCC(=O)O)C(=O)O)CSCC(=O)N[C@@H](Cc2ccccc2)C(=O)N[C@@H](Cc2c[nH]c3ccccc23)C(=O)N[C@@H](CC(=O)O)C1=O [compound 2237] ({CH2CO}-FWD[NHexGly]Y[Nle]NRL[Ahp(2)]P[Tle]DC[AEEA][γGlu][AEEA][Aun]-OH; thioether N-14)

pIC50 (read-out: HC CBA mVISTA IC50): 7.55
SMILES: CCCCCCN1CC(=O)N[C@@H](Cc2ccc(O)cc2)C(=O)N[C@@H](CC(C)C)C(=O)N[C@@H](CC(N)=O)C(=O)N[C@@H](CCCNC(=N)N)C(=O)N[C@@H](CC(C)C)C(=O)N[C@@H](CCCCC)C(=O)N2CCC[C@H]2C(=O)N[C@@H](C(C)(C)C)C(=O)N[C@@H](CO)C(=O)N[C@H](C(=O)NCCOCCOCC(=O)N[C@@H](CCC(=O)NCCOCCOCC(=O)NCCCCCCCCCCC(=O)O)C(=O)O)CSCC(=O)N[C@@H](Cc2ccccc2)C(=O)N[C@@H](Cc2c[nH]c3ccccc23)C(=O)N[C@@H](CC(=O)O)C1=O [compound 2230] ({CH2CO}-FWD[NHexGly]YLNRL[Ahp(2)]P[Tle]SC[AEEA][γGlu][AEEA][Aun]-OH; thioether N-14)

pIC50 [1]: 7.47
SMILES: CCCCCCN1CC(=O)N[C@@H](Cc2ccc(O)cc2)C(=O)N[C@@H](CC(C)C)C(=O)N[C@@H](CC(N)=O)C(=O)N[C@@H](CCCN)C(=O)N(C)[C@@H](CCCC)C(=O)N[C@@H](CCCCC)C(=O)N2CCC[C@H]2C(=O)N[C@@H](C(C)(C)C)C(=O)N[C@@H](CO)C(=O)N[C@H](C(=O)N[C@@H](CC(=O)NCCOCCOCC(=O)N[C@@H](CC(=O)O)C(=O)NCCOCCOCC(=O)NCCCCCCCCCCC(=O)O)C(=O)O)CSCC(=O)N[C@@H](Cc2ccccc2)C(=O)N[C@@H](Cc2cccc(C)c2)C(=O)N[C@@H](CC(=O)O)C1=O [compound 2077] ({CH2CO}-F[Phe(3-Me)]D[NHexGly]YLN[Orn][NMeNle][Ahp(2)]P[Tle]SC[βAsp][AEEA]D[AEEA][Aun]-OH; thioether N-14)

pIC50 [1]: 7.42
SMILES: CCCCCCN1CC(=O)N[C@@H](Cc2ccc(O)cc2)C(=O)N[C@@H](CC(C)C)C(=O)N[C@@H](CC(N)=O)C(=O)N[C@@H](CCCNC(=N)N)C(=O)N(C)[C@@H](CCCC)C(=O)N[C@@H](CCCCC)C(=O)N2CCC[C@H]2C(=O)N[C@@H](C(C)(C)C)C(=O)N[C@@H](CO)C(=O)N[C@H](C(=O)N[C@@H](CC(=O)NCCOCCOCC(=O)N[C@@H](CC(=O)O)C(=O)NCCOCCOCC(=O)NCCCCCCCCCCC(=O)O)C(=O)O)CSCC(=O)N[C@@H](Cc2ccccc2)C(=O)N[C@@H](Cc2cccc(C)c2)C(=O)N[C@@H](CC(=O)O)C1=O [compound 2076] ({CH2CO}-F[Phe(3-Me)]D[NHexGly]YLNR[NMeNle][Ahp(2)]P[Tle]SC[βAsp][AEEA]D[AEEA][Aun]-OH; thioether N-14)

The next lines start with the compound.

SMILES: CCCCCCN1CC(=O)N[C@@H](Cc2ccc(O)cc2)C(=O)N[C@@H](CCCCC)C(=O)N[C@@H](CC(N)=O)C(=O)N[C@@H](CCCNC(=N)N)C(=O)N(C)[C@@H](CCCC)C(=O)N[C@@H](CCCCC)C(=O)N2CCC[C@H]2C(=O)N[C@@H](C(C)C)C(=O)N[C@@H](CC(=O)O)C(=O)N[C@H](C(=O)N[C@@H](CO)C(N)=O)CSCC(=O)N[C@@H](Cc2ccccc2)C(=O)N[C@@H](Cc2c[nH]c3ccccc23)C(=O)N[C@@H](CC(=O)O)C1=O [Example 1405] ({CH2CO}-FWD[NHexGly]Y[Ahp(2)]NR[NMeNle][Ahp(2)]PVDCS-NH2; thioether N-14)
pIC50 (read-out: HC CBA mVISTA IC50): 8.30

SMILES: CCCCCCN1CC(=O)N[C@@H](Cc2ccc(O)cc2)C(=O)N[C@@H](CC(C)C)C(=O)NCC(=O)N[C@@H](CCCNC(=N)N)C(=O)N[C@@H](CC(C)C)C(=O)N[C@@H](CCCCC)C(=O)N2CCC[C@H]2C(=O)N[C@@H](C(C)C)C(=O)N[C@@H](CC(=O)O)C(=O)N[C@H](C(=O)NCC(=O)O)CSCC(=O)N[C@@H](Cc2ccc3ccccc3c2)C(=O)N[C@@H](Cc2ccc(O)cc2)C(=O)N[C@@H](CC(=O)O)C1=O [Ex 1282] ({CH2CO}-[2Nal]YD[NHexGly]YLGRL[Ahp(2)]PVDCG-OH; thioether N-14)
pIC50 (cell-based binding high-content assay, mVISTA, the 16th table, read-out: HC CBA mVISTA IC50): 7.93

SMILES: CCCCCCN1CC(=O)N[C@@H](Cc2ccc(O)cc2)C(=O)N[C@@H](CCCC)C(=O)N[C@@H](CC(N)=O)C(=O)N[C@@H](CCCNC(=N)N)C(=O)N(C)[C@@H](CCCC)C(=O)N[C@@H](CCCCC)C(=O)N2CC[C@H]2C(=O)N[C@@H](C(C)CC)C(=O)N[C@@H](CO)C(=O)N[C@H](C(=O)N[C@@H](CC(=O)NCCOCCOCC(=O)NCCCCCCCCCCC(=O)O)C(=O)O)CSCC(=O)N[C@@H](Cc2ccccc2)C(=O)N[C@@H](Cc2c[nH]c3ccccc23)C(=O)N[C@@H](CC(=O)O)C1=O (stereo partly shown) [Example 2183] ({CH2CO}-FWD[NHexGly]Y[Nle]NR[NMeNle][Ahp(2)][Aze][Ile(3ξ)]SC[βAsp][AEEA][Aun]-OH; thioether N-14)
pIC50 (read-out: HC CBA mVISTA IC50): 7.77

SMILES: CCCCCCN1CC(=O)N[C@@H](Cc2ccc(O)cc2)C(=O)N[C@@H](CC(C)C)C(=O)N[C@@H](CC(N)=O)C(=O)N[C@@H](CCCNC(=N)N)C(=O)N(C)[C@@H](C(C)O)C(=O)N[C@@H](CCCCC)C(=O)N2CCC[C@H]2C(=O)N[C@@H](C(C)(C)C)C(=O)N[C@@H](CC(=O)O)C(=O)N[C@H](C(=O)N[C@@H](CC(=O)NCCOCCOCC(=O)N[C@@H](CC(=O)O)C(=O)NCCOCCOCC(=O)NCCCCCCCCCCC(=O)O)C(=O)O)CSCC(=O)N[C@@H](Cc2ccccc2)C(=O)N[C@@H](Cc2c[nH]c3ccccc23)C(=O)N[C@@H](CC(=O)O)C1=O (stereo partly shown) [compound 2042] ({CH2CO}-FWD[NHexGly]YLNR[NMeThr(3ξ)][Ahp(2)]P[Tle]DC[βAsp][AEEA]D[AEEA][Aun]-OH; thioether N-14)
pIC50 (cell-based binding high-content assay, mVISTA, read-out: HC CBA miPr ISTA IC50): 7.51

SMILES: CCCCCCN1CC(=O)N[C@@H](Cc2ccc(O)cc2)C(=O)N[C@@H](CCCC)C(=O)N[C@@H](CC(=O)O)C(=O)N[C@@H](CCCNC(=N)N)C(=O)N(C)[C@@H](CCCC)C(=O)N[C@@H](CCCCC)C(=O)N2CCC[C@H]2C(=O)N[C@@H](C(C)C)C(=O)N[C@@H](CC(=O)O)C(=O)N[C@H](C(=O)N[C@@H](CO)C(N)=O)CSCC(=O)N[C@@H](Cc2cccc(C)c2)C(=O)N[C@@H](Cc2ccc(O)cc2)C(=O)N[C@@H](CC(=O)O)C1=O [compound 1451] ({CH2CO}-[Phe(3-Me)]YD[NHexGly]Y[Nle]DR[NMeNle][Ahp(2)]PVDCS-NH2; thioether N-14)
pIC50 [2]: 8.07

SMILES: CCCCCCN1CC(=O)N[C@@H](Cc2ccc(O)cc2)C(=O)N[C@@H](CCCC)C(=O)N[C@@H](CC(N)=O)C(=O)N[C@@H](CCCNC(=N)N)C(=O)N(C)[C@@H](CCCC)C(=O)N[C@@H](CCCCC)C(=O)N(C)[C@@H](C)C(=O)N[C@@H](C(C)C)C(=O)N[C@@H](CO)C(=O)N[C@H](C(=O)N[C@@H](CC(=O)NCCOCCOCC(=O)NCCCCCCCCCCC(=O)O)C(=O)O)CSCC(=O)N[C@@H](Cc2ccccc2)C(=O)N[C@@H](Cc2c[nH]c3ccccc23)C(=O)N[C@@H](CC(=O)O)C1=O [Example 2172] ({CH2CO}-FWD[NHexGly]Y[Nle]NR[NMeNle][Ahp(2)][NMeA]VSC[βAsp][AEEA][Aun]-OH; thioether N-14)
pIC50 (read-out: HC CBA mVISTA IC50): 7.51

SMILES: CCCCCCN1CC(=O)N[C@@H](Cc2ccc(O)cc2)C(=O)N[C@@H](CCCC)C(=O)N[C@@H](CC(=O)O)C(=O)N[C@@H](CCCNC(N)=O)C(=O)N(C)[C@@H](CCCC)C(=O)N[C@@H](CCCCC)C(=O)N2CCC[C@H]2C(=O)N[C@@H](C(C)C)C(=O)N[C@@H](CC(=O)O)C(=O)N[C@H](C(=O)N[C@@H](CC(=O)O)C(N)=O)CSCC(=O)N[C@@H](Cc2cccc(C)c2)C(=O)N[C@@H](Cc2ccc(O)cc2)C(=O)N[C@@H](CC(=O)O)C1=O [compound 1447] ({CH2CO}-[Phe(3-Me)]YD[NHexGly]Y[Nle]D[Cit][NMeNle][Ahp(2)]PVDCD-NH2; thioether N-14)
pIC50 [2]: 7.82
